# Assays:
# mice = assay: FTIR-generated paw luminance after intraplantar injection of capsaicin to the left hind paw; assay type: in vivo; conditions: 180 minutes after intraplantar injection (5 μl, 0.1%) to the left hind paw; FIG. 14B
# Method: FIG. 14C illustrates that the luminance values of left and right hind paws are no different in naïve mice 0-30 minutes after being placed in chamber.
# mouse = assay: FTIR imaging of weight bearing after experimental induction of inflammatory pain in the left hind paw; assay type: in vivo; conditions: mouse with induced inflammation in left hind paw, analgesic given before FTIR imaging; FIG. 8 at right
# Text: FIG. 8 illustrates examples of FTIR recordings that detect analgesic efficacy, with great sensitivity. […] For example, the FTIR images are brighter in areas where there is greater relative pressure exerted by the hind paw than in areas where there is less relative pressure exerted.
smiles,measurement,setting,value
COc1cc(CNC(=O)CCCC/C=C/C(C)C)ccc1O [capsaicin],"FTIR paw luminance (weight bearing), uninjured right vs injected left hind paw",mice,significantly increased luminance (weight bearing) in the uninjured (right) paw compared to the capsaicin-injected left paw
O=C(O)Cc1ccccc1Nc1c(Cl)cccc1Cl [diclofenac],"weight shift to the uninjured leg (FTIR imaging, analgesic efficacy)",mouse,does not shift its weight to the uninjured leg

# Reference: patent US10650228B2, “Devices and methods for analyzing animal behavior” (Children's Medical Center Corporation, priority 2015, dated 2020)
